The record followed here is ChEMBL document CHEMBL5543087 (Eur J Med Chem, 2024).

Structures can show the parent of a compound that is named as a salt. Numbered stars: 1 amine (or outer) side, 2 acyl side, 3 side chain; on linkers, the order of the positions; unused ones are H or OH. Square brackets hold non-standard residues; d marks the D form. Peptide text beside a SMILES is read from it. * marks the point of attachment. X2 = C[C@@](N[*:1])(C(=O)[*:2])C(F)(F)F; X1 = C[C@](N[*:1])(C(=O)[*:2])C(F)(F)F; Sta = CC(C)C[C@H](N)[C@@H](O)CC(=O)O; Cbz = O=C(OCc1ccccc1)*; Tfa = O=C(C(F)(F)F)*

Series [1] in a line: Inhibition of porcine gastric mucosa Pepsin using MCA labeled GKPILFFRLK(DNP)-D-R-NH2 as substrate preincubated for 10 mins followed by substrate addition by FRET assay. Also noted: species or system Sus scrofa.
For another series, the target named is Cathepsin D (Homo sapiens, UniProt P07339). The series is described as follows: Inhibition of human Cathepsin D using MCA labeled GKPILFFRLK(DNP)-D-R-NH2 as substrate preincubated for 10 mins followed by substrate addition by FRET assay.
Cathepsin D, sequence (P07339 65-162 limits assumed): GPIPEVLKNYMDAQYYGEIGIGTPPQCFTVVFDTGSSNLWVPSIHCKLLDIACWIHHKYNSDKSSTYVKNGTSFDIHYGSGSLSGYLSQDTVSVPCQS
Cathepsin D, sequence (P07339 169-412 limits assumed): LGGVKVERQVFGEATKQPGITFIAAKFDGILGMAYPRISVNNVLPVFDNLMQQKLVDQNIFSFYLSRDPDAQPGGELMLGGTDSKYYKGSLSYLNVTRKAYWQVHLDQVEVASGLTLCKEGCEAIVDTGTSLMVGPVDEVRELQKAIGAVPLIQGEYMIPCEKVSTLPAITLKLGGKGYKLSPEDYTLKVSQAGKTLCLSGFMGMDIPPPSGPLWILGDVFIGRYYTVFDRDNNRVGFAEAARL
Series [2] is described as follows: Chromatographic hydrophobicity index of compound incubated for 20 mins by reversed-phase HPLC analysis. It is filed as ADME.
Series [3] in a line: Lipophilicity, logP of compound in n-Octanol/water. It is filed as physicochemical.
Series [4] relates to BJ. The series is described as follows: Cytotoxicity against human BJ cells assessed as increase in LDH activity incubated for 24 hrs. It is filed as toxicity, cell-based.
Series [5] has as its system SK-OV-3. The series is described as follows: Cytotoxicity against human SK-OV-3 cells assessed as increase in LDH activity incubated for 24 hrs. It is filed as toxicity, cell-based. The note with it: sk-ov-3, 24 h.
Series [6] deals with SK-OV-3. The series is described as follows: Cytotoxicity against human SK-OV-3 cells assessed as increase in LDH activity at IC50 incubated upto 96 hrs. It is filed as toxicity, cell-based. The note with it: sk-ov-3, 96 h.
In series [7] the test system is SK-OV-3. Kind of series: Cytotoxicity against human SK-OV-3 cells assessed as increase in LDH activity at 28 uM incubated upto 96 hrs. In kind it is toxicity, cell-based. The note with it: sk-ov-3, 96 h.
In series [8] the test system is BJ. Kind of series: Cytotoxicity against human BJ cells assessed as increase in LDH activity at IC50 incubated upto 96 hrs. In kind it is toxicity, cell-based.
Series [9] relates to SK-OV-3. The series is described as follows: Cytotoxicity against human SK-OV-3 cells assessed as change in cell morphology at IC50 incubated for 24 hrs by DAPI fluorescent staining analysis. In kind it is toxicity, cell-based. The note with it: sk-ov-3, 24 h.
For series [10], the system named is SK-OV-3. The series is described as follows: Cytotoxicity against human SK-OV-3 cells assessed as change in nucleus morphology at IC50 incubated for 24 hrs by DAPI fluorescent staining analysis. In kind it is toxicity, cell-based. The note with it: sk-ov-3, 24 h.
Series [11] relates to SK-OV-3. Kind of series: Cytotoxicity against human SK-OV-3 cells assessed as diffused F-actin network at IC50 incubated for 24 hrs by phalloidin fluorescent staining analysis. In kind it is toxicity, cell-based. The note with it: sk-ov-3, 24 h.
The subject of series [12] is SK-OV-3. Kind of series: Cytotoxicity against human SK-OV-3 cells assessed as cell retraction at 28 uM incubated for 24 hrs by DAPI fluorescent staining analysis. In kind it is toxicity, cell-based. The note with it: sk-ov-3, 24 h.
The subject of series [13] is SK-OV-3. Kind of series: Cytotoxicity against human SK-OV-3 cells assessed as change in cell cytoskeleton at IC50 incubated for 24 hrs by phalloidin fluorescent staining analysis. In kind it is toxicity, cell-based. The note with it: sk-ov-3, 24 h.
Series [14] concerns SK-OV-3. The series is described as follows: Cytotoxicity against human SK-OV-3 cells assessed as change in fibronectin matrix organization at IC50 incubated for 24 hrs by phalloidin fluorescent staining analysis. It is filed as toxicity, cell-based. The note with it: sk-ov-3, 24 h.
In series [15] the test system is SK-OV-3. Kind of series: Cytotoxicity against human SK-OV-3 cells assessed as change in cell cytoskeleton at 28 uM incubated for 24 hrs by phalloidin fluorescent staining analysis. In kind it is toxicity, cell-based. The note with it: sk-ov-3, 24 h.
The subject of series [16] is SK-OV-3. The series is described as follows: Cytotoxicity against human SK-OV-3 cells assessed as change in fibronectin matrix organization at 28 uM incubated for 24 hrs by phalloidin fluorescent staining analysis. In kind it is toxicity, cell-based. The note with it: sk-ov-3, 24 h.
Series [17] relates to SK-OV-3. The series is described as follows: Cytotoxicity against human SK-OV-3 cells assessed as increase in LDH activity at 40 uM incubated upto 96 hrs. The note with it: sk-ov-3, 96 h. In kind it is toxicity, cell-based.
In series [18] the test system is SK-OV-3. The series is described as follows: Cytotoxicity against human SK-OV-3 cells assessed as cell retraction at 40 uM incubated for 24 hrs by DAPI fluorescent staining analysis. It is filed as toxicity, cell-based. The note with it: sk-ov-3, 24 h.
For series [19], the system named is SK-OV-3. Kind of series: Cytotoxicity against human SK-OV-3 cells assessed as change in cell cytoskeleton at 40 uM incubated for 24 hrs by phalloidin fluorescent staining analysis. The note with it: sk-ov-3, 24 h. It is filed as toxicity, cell-based.
For series [20], the system named is SK-OV-3. The series is described as follows: Cytotoxicity against human SK-OV-3 cells assessed as change in fibronectin matrix organization at 40 uM incubated for 24 hrs by phalloidin fluorescent staining analysis. The note with it: sk-ov-3, 24 h. In kind it is toxicity, cell-based.

As for `CC(C)C[C@H](NC(=O)[C@H](C)NC(=O)C[C@H](O)[C@H](CC(C)C)NC(=O)[C@@H](NC(=O)[C@@H](NC(=O)C(F)(F)F)C(C)C)C(C)C)[C@@H](O)CC(=O)O` (Tfa-VV[Sta]A[Sta]-OH), the IC50 was over 4000 nM in series [1] and over 2000 nM at Cathepsin D. The same molecule showed a CHI in [2] of 43.68. The molecule also gave a lipophilicity (logP) in [3] of 2.44.
For the molecule `CC(C)C[C@H](NC(=O)[C@H](C)NC(=O)C[C@H](O)[C@H](CC(C)C)NC(=O)[C@@H](NC(=O)[C@](C)(NC(=O)OCc1ccccc1)C(F)(F)F)C(C)C)[C@@H](O)CC(=O)O` (Cbz-[X1]V[Sta]A[Sta]-OH), the midpoint of inhibition in series [1], the IC50, lay at 48 nM. In series [2], this molecule had a CHI of 47.24. This molecule also returned a logP in series [3] of 3.36. Besides, the Activity result was “Non-Toxic” with BJ [4]; “Non-Toxic” in the series on SK-OV-3 [5]; “Non-Toxic” in the series with SK-OV-3 [6]; “Toxic” with SK-OV-3 [7]; “Non-Toxic” with BJ [8]; “Toxic” with SK-OV-3 [9]. Besides, the Activity entry in the series on SK-OV-3 [10], in the series with SK-OV-3 [11], in the series on SK-OV-3 [12], with SK-OV-3 [13], in the series with SK-OV-3 [14] and with SK-OV-3 [15] was “Toxic” throughout. The Activity entry with SK-OV-3 [16] is reported as “Toxic”.
As for `CC(C)CC(=O)N[C@@H](C(=O)N[C@H](C(=O)N[C@@H](CC(C)C)[C@@H](O)CC(=O)N[C@@H](C)C(=O)N[C@@H](CC(C)C)[C@@H](O)CC(=O)O)C(C)C)C(C)C`, it took 21 nM to reach half-maximal inhibition in series [1] (IC50). In addition, the Activity result in the series with BJ [4] and with SK-OV-3 [5] was “Non-Toxic” throughout.
In turn, `CC(C)CC(=O)N[C@H](CCSC(F)(F)F)C(=O)N[C@H](C(=O)N[C@@H](CC(C)C)[C@@H](O)CC(=O)N[C@@H](C)C(=O)N[C@@H](CC(C)C)[C@@H](O)CC(=O)O)C(C)C` displayed an IC50 in series [1] of 31 nM. Besides, the CHI in series [2] was 45.85. This molecule came in with a logP in series [3] of 3.3. Further, the Activity result in the series on BJ [4] is listed as “Non-Toxic”; with SK-OV-3 [5], “Non-Toxic”; with SK-OV-3 [6], “Non-Toxic”; in the series on SK-OV-3 [17], “Toxic”; in the series on BJ [8], “Non-Toxic”; in the series with SK-OV-3 [9], “Toxic”. In addition, the Activity result in the series on SK-OV-3 [10], in the series with SK-OV-3 [11], with SK-OV-3 [18], in the series with SK-OV-3 [13], with SK-OV-3 [14] and in the series on SK-OV-3 [19] was “Toxic” throughout. The Activity entry in the series with SK-OV-3 [20] is recorded as “Toxic”.
Consider `CC(C)C[C@H](NC(=O)[C@H](C)NC(=O)C[C@H](O)[C@H](CC(C)C)NC(=O)[C@@H](NC(=O)[C@@](C)(NC(=O)OCc1ccccc1)C(F)(F)F)C(C)C)[C@@H](O)CC(=O)O` (Cbz-[X2]V[Sta]A[Sta]-OH), for which the IC50 in series [1] is 375 nM. In addition, the CHI in series [2] came to 49.19. Also, in [3], the logP was found to be 3.97. In addition, the Activity result with BJ [4] and in the series on SK-OV-3 [5] was “Non-Toxic” each time.
For the molecule `CC(C)CC(=O)N[C@@H](C(=O)N[C@H](C(=O)N[C@@H](CCSC(F)(F)F)[C@@H](O)CC(=O)N[C@@H](C)C(=O)N[C@@H](CC(C)C)[C@@H](O)CC(=O)O)C(C)C)C(C)C`, the IC50 in series [1] stood at 193 nM.
`CC(C)CC(=O)N[C@H](C(=O)N[C@H](C(=O)N[C@@H](CC(C)C)[C@@H](O)CC(=O)N[C@@H](C)C(=O)N[C@@H](CC(C)C)[C@@H](O)CC(=O)O)C(C)C)C(C)C` [PEPSTATIN] yielded a half-inhibitory concentration (IC50) in series [1] of 50 nM. In addition, in [2], the CHI is 39.55. In [3], this molecule yielded a logP of 2.37.
Regarding `CC(C)CC(=O)N[C@@H](CCSC(F)(F)F)C(=O)N[C@H](C(=O)N[C@@H](CC(C)C)[C@@H](O)CC(=O)N[C@@H](C)C(=O)N[C@@H](CC(C)C)[C@@H](O)CC(=O)O)C(C)C`, the IC50 in series [1] worked out at 775 nM. In series [2], the CHI amounted to 46.95. Also, the logP in series [3] is 3.33. Also, the Activity result in the series with BJ [4] and in the series with SK-OV-3 [5] was “Non-Toxic” each time.
